Experimental data: patent US9695155B2, “Herbicidal substituted pyrimidinyloxy benzene compounds” (E. I. DU PONT DE NEMOURS AND COMPANY, priority 2013, dated 2017)

How the values were obtained:
pigweed = test: Test A postemergence; format: in vivo, Amaranthus retroflexus
Summary of the method: (§1)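 Scoring: eye-based comparison with untreated controls, 0 for no effect through 100 for complete control, at about day 10. Treatments: directed soil spray preemergence; foliar spray postemergence on 2–10 cm plants at the one- to two-leaf stage. Medium: loam soil with sand.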

velvetleaf = test: Test C postemergence; format: in vivo, Abutilon theophrasti; conditions: for Velvetleaf plant response rating: 31 g ai/ha
Summary of the method: (§2)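 Sown in loam/sand → sprayed pre-emergence; or grown to 1–4 leaves in peat mix → sprayed post-emergence. Same solvent/surfactant formulation both ways. Greenhouse 13–15 d. Score 0–100 visual.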

giant foxtail = test: Test A preemergence; format: in vivo, Setaria faberii
Summary of the method: as §1

soybean = test: Test C postemergence; format: in vivo, Glycine max; conditions: for Soybean plant response rating: 31 g ai/ha
Summary of the method: as §2

barnyardgrass [1] = test: Test B flooded paddy test; format: in vivo, Echinochloa crus-galli; conditions: Flood, 250 g ai/ha, 0 to 100 scale where 0 is no effect and 100 is complete control
Summary of the method: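 Greenhouse flooded-pot test: compounds dosed into 3 cm standing water over 2-leaf plants, flood held constant. Rated visually after 13–15 days on 0–100 (complete control = 100); a dash marks no test result.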

johnsongrass = test: Test C postemergence; format: in vivo, Sorghum halepense; conditions: for Johnsongrass plant response rating: 31 g ai/ha
Summary of the method: as §2

chickweed = test: Test C postemergence; format: in vivo, Stellaria media
Summary of the method: as §2

galium = test: Test C postemergence; format: in vivo, Galium aparine
Summary of the method: as §2

barnyardgrass [2] = test: Test A postemergence; format: in vivo, Echinochloa crus-galli
Summary of the method: as §1

[3] = postemergence, visual rating, scale 0 to 100 (0 no effect, 100 complete control), 13 to 15 days
[4] = 125 g ai/ha, 0 to 100 scale, 0 no effect, 100 complete control
[5] = 500 g ai/ha, 0 to 100 scale where 0 is no effect and 100 is complete control
[6] = 125 g ai/ha, postemergence, visual rating, scale 0 to 100 (0 no effect, 100 complete control)
[7] = Postemergence, 62 g ai/ha, scale 0 to 100 (0 no effect, 100 complete control), 13 to 15 days
[8] = 31 g ai/ha, postemergence, visual rating, scale 0 to 100 (0 no effect, 100 complete control), 13 to 15 days

Fc1cccc(Oc2ncc(Cl)cn2)c1-n1cc(Br)cn1 [Compound 178, 2-[2-(4-bromo-1H-pyrazol-1-yl)-3-fluorophenoxy]-5-chloropyrimidine]
pest or weed control at 500 g/ha (pigweed; Amaranthus retroflexus, post-emergence, 500 g ai/ha, 0 to 100 scale where 0 is no effect and 100 is complete control, read-out: Plant response rating, Pigweed): 100%
pest or weed control at 125 g/ha (pigweed; Amaranthus retroflexus, post-emergence, 240 h, 125 g ai/ha, 0 to 100 scale where 0 is no effect and 100 is complete control, read-out: Pigweed plant response rating): 100%
Velvetleaf plant response rating (velvetleaf; [3]): 70
pest or weed control at 16 g/ha (velvetleaf; Abutilon theophrasti, post-emergence, 16 g ai/ha, postemergence, 0 is no effect, 100 is complete control, read-out: Plant response rating (0 to 100), Velvetleaf): 50%
pest or weed control at 125 g/ha (velvetleaf; Abutilon theophrasti, post-emergence, 125 g ai/ha, postemergence, visual rating, scale 0 to 100 (0 no effect, 100 complete control), read-out: Plant response rating, Velvetleaf): 100%
pest or weed control at 62 g/ha (velvetleaf; Abutilon theophrasti, post-emergence, Postemergence, 62 g ai/ha, scale 0 to 100 (0 no effect, 100 complete control), read-out: Plant response rating, Velvetleaf): 85%
pest or weed control at 125 g/ha (giant foxtail; Setaria faberi, pre-emergence, 240 h, 125 g ai/ha, 0 to 100 scale where 0 is no effect and 100 is complete control, read-out: Plant response rating, Foxtail, Giant): 100%
pest or weed control at 500 g/ha (giant foxtail; Setaria faberi, pre-emergence, 240 h, 500 g ai/ha, 0 to 100 scale where 0 is no effect and 100 is complete control, read-out: Foxtail, Giant plant response rating): 100%
Soybean plant response rating (soybean; [3]): 70
Soybean plant response rating (crop injury, 0-100 scale) at 16 g/ha (soybean; Glycine max, post-emergence, 16 g ai/ha, postemergence, 0 is no effect, 100 is complete control): 50%
Soybean plant response rating (crop injury, 0-100 scale) at 125 g/ha (soybean; Glycine max, post-emergence, 125 g ai/ha, postemergence, visual rating, scale 0 to 100 (0 no effect, 100 complete control), read-out: Plant response rating, Soybean): 95%
Soybean plant response rating (crop injury, 0-100 scale) at 62 g/ha (soybean; Glycine max, post-emergence, Postemergence, 62 g ai/ha, scale 0 to 100 (0 no effect, 100 complete control)): 65%
pest or weed control at 250 g/ha (barnyardgrass [1]; Echinochloa crus-galli, read-out: Plant response rating, Barnyardgrass): 0%
Johnsongrass plant response rating (johnsongrass; [3]): 5
pest or weed control at 16 g/ha (johnsongrass; Sorghum halepense, post-emergence, 16 g ai/ha, postemergence, 0 is no effect, 100 is complete control, read-out: Plant response rating (0 to 100), Johnsongrass): 0%
pest or weed control at 125 g/ha (johnsongrass; Sorghum halepense, post-emergence, 125 g ai/ha, postemergence, visual rating, scale 0 to 100 (0 no effect, 100 complete control), read-out: Plant response rating, Johnsongrass): 35%
pest or weed control at 62 g/ha (johnsongrass; Sorghum halepense, post-emergence, Postemergence, 62 g ai/ha, scale 0 to 100 (0 no effect, 100 complete control), read-out: Plant response rating, Johnsongrass): 15%
pest or weed control at 16 g/ha (chickweed; Stellaria media, post-emergence, 16 g ai/ha, postemergence, 0 is no effect, 100 is complete control, read-out: Plant response rating (0 to 100), Chickweed): 40%
pest or weed control at 31 g/ha (chickweed; Stellaria media, post-emergence, 31 g ai/ha, postemergence, visual rating, scale 0 to 100 (0 no effect, 100 complete control), 13 to 15 days, read-out: Chickweed plant response rating): 50%
pest or weed control at 125 g/ha (chickweed; Stellaria media, post-emergence, 125 g ai/ha, postemergence, visual rating, scale 0 to 100 (0 no effect, 100 complete control), read-out: Plant response rating, Chickweed): 80%
pest or weed control at 62 g/ha (chickweed; Stellaria media, post-emergence, Postemergence, 62 g ai/ha, scale 0 to 100 (0 no effect, 100 complete control), read-out: Plant response rating, Chickweed): 65%
pest or weed control at 16 g/ha (galium; Galium, post-emergence, 16 g ai/ha, postemergence, 0 is no effect, 100 is complete control, read-out: Plant response rating (0 to 100), Galium): 80%
pest or weed control at 31 g/ha (galium; Galium, post-emergence, 31 g ai/ha, postemergence, visual rating, scale 0 to 100 (0 no effect, 100 complete control), 13 to 15 days, read-out: Galium plant response rating): 75%
pest or weed control at 125 g/ha (galium; Galium, post-emergence, 125 g ai/ha, postemergence, visual rating, scale 0 to 100 (0 no effect, 100 complete control), read-out: Plant response rating, Galium): 98%
pest or weed control at 62 g/ha (galium; Galium, post-emergence, Postemergence, 62 g ai/ha, scale 0 to 100 (0 no effect, 100 complete control), read-out: Plant response rating, Galium): 85%
pest or weed control at 125 g/ha (barnyardgrass [2]; Echinochloa crus-galli, post-emergence, 240 h, 125 g ai/ha, 0 to 100 scale where 0 is no effect and 100 is complete control, read-out: Barnyardgrass plant response rating): 70%
pest or weed control at 500 g/ha (barnyardgrass [2]; Echinochloa crus-galli, post-emergence, 240 h, 500 g ai/ha, 0 to 100 scale where 0 is no effect and 100 is complete control, read-out: Plant response rating, Barnyardgrass): 100%

N#Cc1cccc(Oc2ncc(Cl)cn2)c1-n1cc(-n2ccc(C(F)(F)F)n2)cn1 [Compound 284]
Plant response rating, Pigweed (pigweed; [4]): 100
Plant response rating, Pigweed (pigweed; [5]): 100
Velvetleaf plant response rating (velvetleaf; [3]): 15
Plant response rating, Velvetleaf (velvetleaf; [6]): 30
Plant response rating (0 to 100), Velvetleaf (velvetleaf; 250 g ai/ha, postemergence): 70
Plant response rating, Velvetleaf (velvetleaf; [7]): 15
Foxtail, Giant plant response rating (0 to 100 scale) (giant foxtail; 125 g ai/ha): 90
Foxtail, Giant plant response rating (giant foxtail; [5]): 90
Soybean plant response rating (soybean; [3]): 35
Plant response rating, Soybean (soybean; [6]): 85
Plant response rating (0 to 100), Soybean (soybean; 250 g ai/ha, postemergence): 65
Plant response rating, Soybean (soybean; [7]): 40
Plant response rating, Barnyardgrass (barnyardgrass [1]): 0
Johnsongrass plant response rating (johnsongrass; [3]): 5
Plant response rating, Johnsongrass (johnsongrass; [6]): 20
Plant response rating (0 to 100), Johnsongrass (johnsongrass; 250 g ai/ha, postemergence): 20
Plant response rating, Johnsongrass (johnsongrass; [7]): 5
Chickweed plant response rating (chickweed; [8]): 65
Plant response rating, Chickweed (chickweed; [6]): 100
Plant response rating (0 to 100), Chickweed (chickweed; 250 g ai/ha, postemergence): 100
Plant response rating, Chickweed (chickweed; [7]): 100
Galium plant response rating (galium; [8]): 100
Plant response rating, Galium (galium; [6]): 85
Plant response rating (0 to 100), Galium (galium; 250 g ai/ha, postemergence): 100
Plant response rating, Galium (galium; [7]): 85
Plant response rating, Barnyardgrass (barnyardgrass [2]; [4]): 30
Plant response rating, Barnyardgrass (barnyardgrass [2]; [5]): 90
